Laboratory results as given in patent publication US12427187B2, “Glucose-responsive insulin conjugates” (priority 2019, dated 2025).
Where two headings read alike, the source gives them in different places.

Molecular target: T1, Human macrophage mannose receptor 1 (MRC1) (Homo sapiens, UniProt P22897)
T1 sequence (P22897 19-1456): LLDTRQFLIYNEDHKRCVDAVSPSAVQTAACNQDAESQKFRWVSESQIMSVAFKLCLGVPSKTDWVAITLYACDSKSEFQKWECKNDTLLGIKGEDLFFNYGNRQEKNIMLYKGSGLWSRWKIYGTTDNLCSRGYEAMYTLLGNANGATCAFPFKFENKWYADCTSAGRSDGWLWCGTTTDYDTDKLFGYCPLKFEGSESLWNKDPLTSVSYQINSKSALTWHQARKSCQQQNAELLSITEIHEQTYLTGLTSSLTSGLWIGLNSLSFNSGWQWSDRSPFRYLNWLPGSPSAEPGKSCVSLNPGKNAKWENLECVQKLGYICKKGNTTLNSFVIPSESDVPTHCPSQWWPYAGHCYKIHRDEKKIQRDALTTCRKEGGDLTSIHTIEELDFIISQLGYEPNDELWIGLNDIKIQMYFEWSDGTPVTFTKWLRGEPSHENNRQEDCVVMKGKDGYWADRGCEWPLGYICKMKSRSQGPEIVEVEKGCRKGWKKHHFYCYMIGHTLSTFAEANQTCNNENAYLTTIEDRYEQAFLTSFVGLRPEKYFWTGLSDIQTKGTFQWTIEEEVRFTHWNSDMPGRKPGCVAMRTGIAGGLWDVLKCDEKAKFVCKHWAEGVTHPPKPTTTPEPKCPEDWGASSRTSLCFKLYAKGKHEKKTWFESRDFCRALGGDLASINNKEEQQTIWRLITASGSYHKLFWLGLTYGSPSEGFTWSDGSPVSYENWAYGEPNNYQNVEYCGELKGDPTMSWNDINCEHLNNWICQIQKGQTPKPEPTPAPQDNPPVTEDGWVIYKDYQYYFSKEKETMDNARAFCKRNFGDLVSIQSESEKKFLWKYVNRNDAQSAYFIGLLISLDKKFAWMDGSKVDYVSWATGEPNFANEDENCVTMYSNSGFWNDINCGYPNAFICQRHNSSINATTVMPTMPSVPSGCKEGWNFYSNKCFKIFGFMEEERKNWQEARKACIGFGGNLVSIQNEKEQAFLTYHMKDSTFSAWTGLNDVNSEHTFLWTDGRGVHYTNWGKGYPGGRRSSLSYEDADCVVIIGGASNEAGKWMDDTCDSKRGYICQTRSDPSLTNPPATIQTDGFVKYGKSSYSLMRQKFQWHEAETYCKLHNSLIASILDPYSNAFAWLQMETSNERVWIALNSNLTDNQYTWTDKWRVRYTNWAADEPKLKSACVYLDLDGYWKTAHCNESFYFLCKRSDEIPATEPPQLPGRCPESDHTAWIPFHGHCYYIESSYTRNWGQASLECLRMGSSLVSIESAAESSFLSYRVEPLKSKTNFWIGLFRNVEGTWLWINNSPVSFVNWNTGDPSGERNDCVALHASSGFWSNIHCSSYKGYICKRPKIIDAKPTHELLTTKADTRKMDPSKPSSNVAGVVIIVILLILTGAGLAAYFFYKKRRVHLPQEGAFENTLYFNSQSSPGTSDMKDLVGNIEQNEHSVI
Assay: MRC1 competition binding assay with Eu-mannosylated-BSA
Details: IP = inflection point, read-out: MRC1 Binding IP
Method: The competition binding assay for Human macrophage mannose receptor 1 (MRC1) utilized a ligand, mannosylated-BSA labeled with the DELFIA Eu-N1-ITC reagent, as reported in the literature. Assay was performed either in a 96-well plate with 100 μL well volume (Method E) or in a 384-well plate with 25 μL well volume (Method F). […] The antibody was incubated in the plate for 1 hr at rt with shaking. The plate was washed with wash buffer 3-5 times followed by addition of MRC1 (2 ng/μl final concentration) in PBS containing 1% stabilizer BSA. The plate was incubated at rt with gentle shaking for 1 hr. The plate was washed three times with wash buffer. The IOC molecules in 12.5 μL (or 50 μL depending on plate format) buffer at appropriate concentrations were added followed by 12.5 μL (or 50 μL) Eu-mannosylated-BSA (0.1 nm final concentration) in 50 mM Tris, pH 7.5 containing 100 mM NaCl, 5 mM CaCl2, 1 mM MgCl2 and 0.2% stabilizer BSA. The plate was incubated for 2 hrs at rt with shaking followed by washing three times with wash buffer.

IC50 (Method E: 96-well plate) [nM] | IC50 (Method F: 384-well plate) [nM] | SMILES
54.5 |  | CC(=O)[C@H](CCCCN)NC(=O)CCCCC(=O)N[C@@H](CCC(=O)NCCCCCC(=O)N(CCOC1O[C@H](CO)[C@@H](O)[C@H](O)[C@@H]1O)CCOC1O[C@H](CO)[C@@H](O)[C@H](O)[C@@H]1O)C(=O)N[C@@H](CCC(=O)NCCCCCC(=O)N(CCOC1O[C@H](CO)[C@@H](O)[C@H](O)[C@@H]1O)CCO[C@H]1O[C@H](CO)[C@@H](O)[C@H](O)[C@@H]1O)C(=O)N[C@@H](CC(C)C)C(=O)NCCCCCC(=O)N(CCOC1O[C@H](CO)[C@@H](O)[C@H](O)[C@@H]1O)CCOC1O[C@H](CO)[C@@H](O)[C@H](O)[C@@H]1O (some centres unmarked) [IOC-49]
 | 37 | CC(=O)[C@H](CCCCN)NC(=O)CCCCC(=O)NCC(=O)N[C@@H](CCC(=O)N[C@@H](CCC(=O)NCCCCCC(=O)N(CCOC1O[C@H](CO)[C@@H](O)[C@H](O)[C@@H]1O)CCO[C@H]1O[C@H](CO)[C@@H](O)[C@H](O)[C@@H]1O)C(=O)NCCCCCC(=O)N(CCOC1O[C@H](CO)[C@@H](O)[C@H](O)[C@@H]1O)CCOC1O[C@H](CO)[C@@H](O)[C@H](O)[C@@H]1O)C(=O)NCCCCCC(=O)NCCO[C@H]1O[C@H](CO[C@H]2O[C@H](CO)[C@@H](O)[C@H](O)[C@@H]2O)[C@@H](O)[C@H](O[C@H]2O[C@H](CO)[C@@H](O)[C@H](O)[C@@H]2O)[C@@H]1O (some centres unmarked) [IOC-30]
 | 86.4 | CC(=O)[C@H](CCCCN)NC(=O)CCCCCNC(=O)[C@H](CCCCNC(=O)[C@H](CCCCNC(=O)[C@H](CCCCNC(=O)[C@H](CCCCNC(=O)CCCCCCNC(=O)CN(CC(=O)NCCO[C@H]1O[C@H](CO)[C@@H](O)[C@H](O)[C@@H]1O)CC(=O)NCCO[C@H]1O[C@H](CO)[C@@H](O)[C@H](O)[C@@H]1O)NC(=O)CN(CC(=O)NCCO[C@H]1O[C@H](CO)[C@@H](O)[C@H](O)[C@@H]1O)CC(=O)NCCO[C@H]1O[C@H](CO)[C@@H](O)[C@H](O)[C@@H]1O)NC(=O)CN(CC(=O)NCCO[C@H]1O[C@H](O)[C@@H](O)[C@H](O)[C@@H]1O)CC(=O)NCCO[C@H]1O[C@H](CO)[C@@H](O)[C@H](O)[C@@H]1O)NC(=O)CN(CC(=O)NCCO[C@H]1O[C@H](CO)[C@@H](O)[C@H](O)[C@@H]1O)CC(=O)NCCO[C@H]1O[C@H](CO)[C@@H](O)[C@H](O)[C@@H]1O)NC(=O)CN(CC(=O)NCCO[C@H]1O[C@H](CO)[C@@H](O)[C@H](O)[C@@H]1O)CC(=O)NCCO[C@H]1O[C@H](CO)[C@@H](O)[C@H](O)[C@@H]1O [IOC-60]
37.2 |  | CC(=O)[C@H](CCCCN)NC(=O)CCCCC(=O)N[C@@H](CCC(=O)NCCO[C@H]1O[C@H](CO)[C@@H](O)[C@H](O)[C@@H]1O)C(=O)N[C@@H](CCC(=O)NCCO[C@H]1O[C@H](CO)[C@@H](O)[C@H](O)[C@@H]1O)C(=O)N[C@@H](CCC(=O)NCCO[C@H]1O[C@H](CO)[C@@H](O)[C@H](O)[C@@H]1O)C(=O)NCCO[C@H]1O[C@H](CO[C@H]2O[C@H](CO)[C@@H](O)[C@H](O)[C@@H]2O)[C@@H](O)[C@H](O[C@H]2O[C@H](CO)[C@@H](O)[C@H](O)[C@@H]2O)[C@@H]1O [IOC-23]
7.17 |  | CC(=O)[C@H](CCCCN)NC(=O)CCCCCNC(=O)[C@H](CCCCNC(=O)CCCCC(=O)NCCO[C@H]1O[C@H](CO[C@H]2O[C@H](CO)[C@@H](O)[C@H](O)[C@@H]2O)[C@@H](O)[C@H](O[C@H]2O[C@H](CO)[C@@H](O)[C@H](O)[C@@H]2O)[C@@H]1O)NC(=O)[C@H](CCCCNC(=O)CCCCC(=O)NCCO[C@H]1O[C@H](CO[C@H]2O[C@H](CO)[C@@H](O)[C@H](O)[C@@H]2O)[C@@H](O)[C@H](O[C@H]2O[C@H](CO)[C@@H](O)[C@H](O)[C@@H]2O)[C@@H]1O)NC(=O)CCCCC(=O)NCCO[C@H]1O[C@H](CO[C@H]2O[C@H](CO)[C@@H](O)[C@H](O)[C@@H]2O)[C@@H](O)[C@H](O[C@H]2O[C@H](CO)[C@@H](O)[C@H](O)[C@@H]2O)[C@@H]1O [IOC-7]
 | 7.93 | CC(=O)[C@H](CCCCN)NC(=O)CCCCC(=O)NCC(=O)N[C@@H](CCC(=O)N[C@@H](CCC(=O)NCCCCCC(=O)N(CCOC1O[C@H](CO)[C@@H](O)[C@H](O)[C@@H]1O)CCO[C@H]1O[C@H](CO)[C@@H](O)[C@H](O)[C@@H]1O)C(=O)NCCCCCC(=O)N(CCOC1O[C@H](CO)[C@@H](O)[C@H](O)[C@@H]1O)CCOC1O[C@H](CO)[C@@H](O)[C@H](O)[C@@H]1O)C(=O)NCCCCCC(=O)NCCO[C@H]1O[C@H](CO[C@H]2O[C@H](CO)[C@@H](O)[C@H](O)[C@@H]2O)[C@@H](O)[C@H](O[C@H]2O[C@H](CO)[C@@H](O)[C@H](O)[C@@H]2O)[C@@H]1O (some centres unmarked) [IOC-34]

The remaining lines, values behind:

SMILES | IC50 (Method E: 96-well plate) [nM] | IC50 (Method F: 384-well plate) [nM]
CC(=O)[C@H](CCCCN)NC(=O)CCCCC(=O)N[C@@H](CCC(=O)NCCO[C@H]1O[C@H](CO[C@H]2O[C@H](CO)[C@@H](O)[C@H](O)[C@@H]2O)[C@@H](O)[C@H](O[C@H]2O[C@H](CO)[C@@H](O)[C@H](O)[C@@H]2O)[C@@H]1O)C(=O)N[C@@H](CCC(=O)NCCO[C@H]1O[C@H](CO[C@H]2O[C@H](CO)[C@@H](O)[C@H](O)[C@@H]2O)[C@@H](O)[C@H](O[C@H]2O[C@H](CO)[C@@H](O)[C@H](O)[C@@H]2O)[C@@H]1O)C(=O)N[C@@H](CC(C)C)C(=O)NCCO[C@H]1O[C@H](CO[C@H]2O[C@H](CO)[C@@H](O)[C@H](O)[C@@H]2O)[C@@H](O)[C@H](O[C@H]2O[C@H](CO)[C@@H](O)[C@H](O)[C@@H]2O)[C@@H]1O [IOC-4] | 7.56 | 
CC(=O)[C@H](CCCCN)NC(=O)CCCCCNC(=O)[C@H](CCCCNC(=O)CCCCCNC(=O)CCCCCNC(=O)CN(CC(=O)NCCO[C@H]1O[C@H](CO)[C@@H](O)[C@H](O)[C@@H]1O)CC(=O)NCCO[C@H]1O[C@H](CO)[C@@H](O)[C@H](O)[C@@H]1O)NC(=O)[C@H](CCCCNC(=O)CCCCCNC(=O)CN(CC(=O)NCCO[C@H]1O[C@H](CO)[C@@H](O)[C@H](O)[C@@H]1O)CC(=O)NCCO[C@H]1O[C@H](CO)[C@@H](O)[C@H](O)[C@@H]1O)NC(=O)CCCCCNC(=O)CN(CC(=O)NCCO[C@H]1O[C@H](CO)[C@@H](O)[C@H](O)[C@@H]1O)CC(=O)NCCO[C@H]1O[C@H](CO)[C@@H](O)[C@H](O)[C@@H]1O [IOC-52] |  | 49.1
CC(=O)[C@H](CCCCN)NC(=O)CCCCC(=O)N[C@@H](CCC(=O)N[C@@H](CCC(=O)NCCO[C@@H]1O[C@@H](C)[C@@H](O)[C@@H](O)[C@@H]1O)C(=O)NCCO[C@@H]1O[C@@H](C)[C@@H](O)[C@@H](O)[C@@H]1O)C(=O)NCCO[C@H]1O[C@H](CO[C@H]2O[C@H](CO)[C@@H](O)[C@H](O)[C@@H]2O)[C@@H](O)[C@H](O[C@H]2O[C@H](CO)[C@@H](O)[C@H](O)[C@@H]2O)[C@@H]1O [IOC-3] | 42.2 | 
CC(=O)[C@H](CCCCN)NC(=O)CCCCC(=O)NCC(=O)N[C@@H](CCC(=O)N[C@@H](CCC(=O)NCCCCCC(=O)N(CCOC1O[C@H](CO)[C@@H](O)[C@H](O)[C@@H]1O)CCO[C@H]1O[C@H](CO)[C@@H](O)[C@H](O)[C@@H]1O)C(=O)NCCCCCC(=O)N(CCOC1O[C@H](CO)[C@@H](O)[C@H](O)[C@@H]1O)CCOC1O[C@H](CO)[C@@H](O)[C@H](O)[C@@H]1O)C(=O)NCCCCCC(=O)NCCO[C@H]1O[C@H](CO[C@H]2O[C@H](CO)[C@@H](O)[C@H](O)[C@@H]2O)[C@@H](O)[C@H](O[C@H]2O[C@H](CO)[C@@H](O)[C@H](O)[C@@H]2O)[C@@H]1O (some centres unmarked) [IOC-35] |  | 16.6
CC(=O)[C@H](CCCCN)NC(=O)CCCCC(=O)NCC(=O)N[C@@H](CCC(=O)N[C@@H](CCC(=O)NCCCCCC(=O)N(CCOC1O[C@H](CO)[C@@H](O)[C@H](O)[C@@H]1O)CCO[C@H]1O[C@H](CO)[C@@H](O)[C@H](O)[C@@H]1O)C(=O)NCCCCCC(=O)N(CCOC1O[C@H](CO)[C@@H](O)[C@H](O)[C@@H]1O)CCOC1O[C@H](CO)[C@@H](O)[C@H](O)[C@@H]1O)C(=O)NCCCCCC(=O)NCCO[C@H]1O[C@H](CO[C@H]2O[C@H](CO)[C@@H](O)[C@H](O)[C@@H]2O)[C@@H](O)[C@H](O[C@H]2O[C@H](CO)[C@@H](O)[C@H](O)[C@@H]2O)[C@@H]1O (some centres unmarked) [IOC-29] |  | 18.5
